Patent US20120258053A1, “ORAL CARE COMPOSITIONS FOR USE WITH AN ORAL LIGHT DEVICE” (COLGATE-PALMOLIVE COMPANY, priority 2009, published 2012)
Entries after “also recorded” stand apart in the source; their conditions may differ.

Columns and labels:
biofilm of A. naeslundi = test: Light-triggered reduction of bacterial biofilm (24 h old); type: cell-based; conditions: for Percentage Reduction in Biofilm, Light plus photosensitizer: 0.1% dye incubated 2 min prior to irradiation, wavelength given with each dye, 24 J/cm^2 (200 mW/cm^2 @ 2 min); for biofilm reduction compared to light alone: 0.1% concentration, in the presence of light
Method: Bacterial biofilms (24 h old) were treated with the photosensitizers or photo-triggered actives described in the tables below at a concentration less than their minimum inhibitory concentration (MIC). The actives were either pre-incubated before light exposure for 2 s to 15 min, typically less than 2 min, or administered at the same time the biofilm was exposed to the light. The bacteria were irradiated at a set wavelength for 2 s to 15 min (typically less than 2 min) at an energy dose between 1-450 J/cm^2. Optical power densities typically ranged from 1-500 mW/cm^2. Light was either pulsed or provided in one continuous light exposure. Pulsed light treatments were preferred for high optical energy treatments.
On a biofilm of A. naeslundi, the impact of four “photosensitizers” (0.1% concentration) in the presence of light was evaluated. MIC typically ranged from 0.0001% (w/v) to 1% (w/v). The percent biofilm reduction is tabulated below.

[1] = tested on: TNFα of HEPM cells stimulated by IL-1β; test: Cytokine concentration in IL-1β stimulated cell culture after light irradiation with dye; type: cell-based, human; conditions: 9 mW/cm^2, 1.1 J/cm^2
Method: Cells used in this example include human embryonic palatal mesenchymal (HEPM) cells and oral keratinocytes OBA9 cells. The embodiments also can be used with other cells such as human gingival fibroblasts (HGF). Cells were seeded in 24-well plates and cultured until reaching a confluence above 80%. The confluent-stage cells were treated with stimulants such as IL-1β followed by light irradiation alone, or light irradiation combined with GRAS photosensitizing dye. The cells were either pre-incubated in photosensitizing dye before light exposure, or administered at the same time of light exposure. The cells were incubated in photosensitizing dyes for varied amounts of time, the concentration of photosensitizing dyes were varied, and the cell were irradiated with light for varied amounts of time per exposure, as well as irradiation either one time or multiple times, as described below. After irradiation, the cells were incubated at 37° C. The cell culture media was collected after a certain amount of time for cytokine analysis.
The results tabulated below reveal that visible light (various wavelength, 380-700 nm) alone and photosensitizing dye irradiated with visible light (various wavelength, 380-700 nm) have anti-inflammation effect. […]

For `O=C1/C(=C2\Nc3ccc(S(=O)(=O)[O-])cc3C2=O)Nc2ccc(S(=O)(=O)[O-])cc21.[Na+].[Na+]` [Indigo Carmine], the “Percentage Reduction in Biofilm, Light plus photosensitizer” value (“Percentage Reduction in Biofilm” for short) (biofilm of A. naeslundi) was 30%.

With `O=C([O-])C1=NN(c2ccc(S(=O)(=O)[O-])cc2)C(=O)C1N=Nc1ccc(S(=O)(=O)[O-])cc1.[Na+].[Na+].[Na+]` (stereo not shown) [Tartrazine] the “biofilm reduction compared to light alone” value (from here on “biofilm reduction”) (biofilm of A. naeslundi) was “increased biofilm reduction compared to light alone” and the “Percentage Reduction in Biofilm” value (biofilm of A. naeslundi) was 72%.

With `CCN(Cc1cccc(S(=O)(=O)[O-])c1)c1ccc(C(=C2C=CC(=[N+](CC)Cc3cccc(S(=O)(=O)[O-])c3)C=C2)c2ccccc2S(=O)(=O)[O-])cc1.[Na+].[Na+]` [Erioglaucine, Erioglaucine disodium salt] the “Percentage Reduction in Biofilm” value (biofilm of A. naeslundi) was 41%.

In the case of `CCN(Cc1cccc(S(=O)(=O)[O-])c1)c1ccc(C(=C2C=CC(=[N+](CC)Cc3cccc(S(=O)(=O)[O-])c3)C=C2)c2ccc(O)cc2S(=O)(=O)[O-])cc1.[Na+].[Na+]` [Fast Green, Fast Green FCF], the “biofilm reduction” value (biofilm of A. naeslundi) is reported as “increased biofilm reduction compared to light alone”, the “Percentage Reduction in Biofilm” value (biofilm of A. naeslundi) is reported as 43% and the “effect on TNFα concentration” value ([1]; Fast Green 1000 ppm combined with light at 625 nm for 2 minutes) is reported as “can decrease pro-inflammation cytokine TNFα concentration; also recorded: can reduce concentration of TNFα”. For the same compound, the “Cytokine Conc. TNF-α, Il-1β + light + Dye” value ([1]; HEPM cells, IL-1β stimulated, Fast Green 1000 ppm, 625 nm, 2 minutes, Il-1β alone 9, Il-1β + light 5.8) was 3.4 pg/mL.

With `CN(C)c1ccc(C(=C2C=CC(=[N+](C)C)C=C2)c2c(O)c(S(=O)(=O)[O-])cc3cc(S(=O)(=O)[O-])ccc23)cc1.[Na+]` [Lissamine Green B] the “biofilm reduction” value (biofilm of A. naeslundi) was “increased biofilm reduction compared to light alone” and the “Percentage Reduction in Biofilm” value (biofilm of A. naeslundi) was 43%.

In the case of `O=S(=O)([O-])c1ccc(/N=N/c2cc(S(=O)(=O)[O-])c3ccccc3c2O)c2ccccc12.[Na+].[Na+]` [Chromotrope, Chromotrope FB], the “Percentage Reduction in Biofilm” value (biofilm of A. naeslundi) is reported as 18%.

`COc1cc(S(=O)(=O)[O-])c(C)cc1N=Nc1c(O)ccc2cc(S(=O)(=O)[O-])ccc12.[Na+].[Na+]` [Allura Red, Allura Red AC] was tested, and the “biofilm reduction” value (biofilm of A. naeslundi) was “increased biofilm reduction compared to light alone” and the “Percentage Reduction in Biofilm” value (biofilm of A. naeslundi) was 55%.

In the case of Chlorophyllin sodium copper salt, the “Percentage Reduction in Biofilm” value (biofilm of A. naeslundi) is reported as 21%.

In the case of `Cc1cc2nc3c(=O)[nH]c(=O)nc-3n(C[C@H](O)[C@H](O)[C@H](O)CO)c2cc1C` [Riboflavin], the “biofilm reduction” value (biofilm of A. naeslundi) is reported as “increased biofilm reduction compared to light alone” and the “Percentage Reduction in Biofilm” value (biofilm of A. naeslundi) is reported as 56%.
